Source: patent US10597388B2, “Pyridazinone herbicides” (FMC CORPORATION, priority 2014, dated 2020)

Legend:
Type in all cases: in vivo
[1] = system: blackgrass (Alopecurus myosuroides); test: Test A greenhouse herbicide test, postemergence
In short: (§1)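 Scores are visual injury ratings from 0 (no effect) to 100 (complete control) versus untreated plants, taken roughly 10 d after treatment in the greenhouse. Treatment was postemergence, on one- to two-leaf plants 2–10 cm high growing in a loam soil/sand mix.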

[2] = system: galium (catchweed bedstraw, Galium aparine); test: Test A greenhouse herbicide test, postemergence
In short: as §1

[3] = system: barnyardgrass (Echinochloa crus-galli); test: Test C greenhouse herbicide test, pre- and postemergence
In short: (§2)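 Percent-control ratings (0 none, 100 complete) came from visual comparison with controls held alongside in the greenhouse for 13–15 d. Treatments covered soil application at sowing and foliar application to young plants 2–18 cm tall.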

[4] = system: blackgrass (Alopecurus myosuroides); test: as above
In short: as §2

[5] = system: galium (catchweed bedstraw, Galium aparine); test: as above
In short: as §2

[6] = system: nutsedge, yellow (yellow nutsedge, Cyperus esculentus); test: as above
In short: as §2

[7] = system: pigweed (Amaranthus retroflexus); test: as above
In short: as §2

[8] = system: ragweed (common ragweed, Ambrosia elatior); test: as above
In short: as §2

[9] = system: ryegrass, Italian (Italian ryegrass, Lolium multiflorum); test: as above
In short: as §2

[10] = system: soybean (Glycine max); test: as above
In short: as §2

[11] = system: velvetleaf (Abutilon theophrasti); test: as above
In short: as §2

[12] = system: chickweed (common chickweed, Stellaria media); test: Test C greenhouse herbicide test, postemergence
In short: (§3)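 Postemergence foliar treatment, 1- to 4-leaf stage (2–18 cm), peat/vermiculite medium; greenhouse 13–15 d; visual rating vs controls, 0 = no effect, 100 = complete control; dash = no result.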

[13] = system: kochia (Kochia scoparia); test: Test C greenhouse herbicide test, postemergence
In short: as §3

[14] = system: oat, wild (wild oat, Avena fatua); test: Test C greenhouse herbicide test, postemergence
In short: as §3

[15] = 125 g ai/ha, visual rating after approx. 10 d, 0 to 100 scale (0 no effect, 100 complete control)
[16] = 500 g ai/ha, 0 to 100 scale, 0 is no effect, 100 is complete control
[17] = Postemergence, 31 g ai/ha, 0 to 100 scale (0 no effect, 100 complete control)
[18] = Postemergence, 125 g ai/ha, scale 0 to 100, 0 is no effect, 100 is complete control
[19] = Postemergence, 250 g ai/ha, scale 0 to 100, 0 no effect, 100 complete control, 13 to 15 d
[20] = Preemergence, 31 g ai/ha, scale 0 to 100, 0 is no effect, 100 is complete control
[21] = Preemergence, 62 g ai/ha, scale 0 to 100, 0 is no effect, 100 is complete control
[22] = Preemergence, 125 g ai/ha, scale 0 to 100, 0 is no effect, 100 is complete control
[23] = Preemergence, 250 g ai/ha, scale 0 to 100, 0 no effect, 100 complete control
[24] = postemergence, 62 g ai/ha, scale 0 to 100, 0 no effect, 100 complete control

Cc1cc(C)c2ccccc2c1-c1c(O)c(C)nn(C)c1=O [Compound 21]
35: Barnyardgrass plant response rating [3, 17]
45: Barnyardgrass plant response rating [3, 24]
85: Nutsedge, Yellow plant response rating [6, 17] | Plant response rating, Nutsedge, Yellow [6, 21] | Plant response rating, Nutsedge, Yellow [6, 22] | Nutsedge, Yellow plant response rating [6, 23] | Ragweed plant response rating [8, 17] | Plant response rating, Velvetleaf [11, 18] | Velvetleaf plant response rating [11, 24]
75: Plant response rating, Barnyardgrass [3, 18] | Plant response rating, Nutsedge, Yellow [6, 20] | Velvetleaf plant response rating [11, 17]
70: Pigweed plant response rating [7, 17]
0: Soybean plant response rating [10, 17] | Plant response rating, Soybean [10, 21] | Plant response rating, Soybean [10, 22] | Soybean plant response rating [10, 24]
10: Plant response rating, Soybean [10, 18]
98: Galium plant response rating [5, 17] | Plant response rating, Galium [5, 20] | Plant response rating, Galium [5, 21] | Plant response rating, Galium [5, 22] | Plant response rating, Pigweed [7, 19] | Plant response rating, Velvetleaf [11, 22] | Velvetleaf plant response rating [11, 23] | Plant response rating, Oat, Wild [14, 18] | Oat, Wild plant response rating [14, 24]
20: Plant response rating, Soybean [10, 19] | Soybean plant response rating [10, 23]
95: Plant response rating, Blackgrass [4, 19] | Plant response rating, Pigweed [7, 18] | Pigweed plant response rating [7, 24] | Plant response rating, Ragweed [8, 19] | Plant response rating, Ragweed [8, 20] | Plant response rating, Ryegrass, Italian [9, 18] | Plant response rating, Ryegrass, Italian [9, 19] | Ryegrass, Italian plant response rating [9, 23] | Ryegrass, Italian plant response rating [9, 24] | Chickweed plant response rating [12, 17] | Plant response rating, Kochia [13, 18]
80: Plant response rating, Barnyardgrass [3, 20] | Blackgrass plant response rating [4, 17] | Kochia plant response rating [13, 17]
90: Plant response rating, Blackgrass [1, 15] | Blackgrass plant response rating [1, 16] | Plant response rating, Barnyardgrass [3, 19] | Plant response rating, Blackgrass [4, 18] | Plant response rating, Blackgrass [4, 20] | Plant response rating, Blackgrass [4, 21] | Plant response rating, Blackgrass [4, 22] | Blackgrass plant response rating [4, 23] | Blackgrass plant response rating [4, 24] | Plant response rating, Nutsedge, Yellow [6, 18] | Plant response rating, Nutsedge, Yellow [6, 19] | Nutsedge, Yellow plant response rating [6, 24] | Plant response rating, Ragweed [8, 18] | Ragweed plant response rating [8, 24] | Ryegrass, Italian plant response rating [9, 17] | Plant response rating, Ryegrass, Italian [9, 20] | Plant response rating, Ryegrass, Italian [9, 21] | Plant response rating, Ryegrass, Italian [9, 22] | Plant response rating, Velvetleaf [11, 19] | Plant response rating, Velvetleaf [11, 21] | Kochia plant response rating [13, 24] | Oat, Wild plant response rating [14, 17]
100: Plant response rating, Galium [2, 15] | Galium plant response rating [2, 16] | Plant response rating, Barnyardgrass [3, 21] | Plant response rating, Barnyardgrass [3, 22] | Barnyardgrass plant response rating [3, 23] | Plant response rating, Galium [5, 18] | Plant response rating, Galium [5, 19] | Galium plant response rating [5, 23] | Galium plant response rating [5, 24] | Plant response rating, Pigweed [7, 20] | Plant response rating, Pigweed [7, 21] | Plant response rating, Pigweed [7, 22] | Pigweed plant response rating [7, 23] | Plant response rating, Ragweed [8, 21] | Plant response rating, Ragweed [8, 22] | Ragweed plant response rating [8, 23] | Plant response rating, Chickweed [12, 18] | Plant response rating, Chickweed [12, 19] | Chickweed plant response rating [12, 24] | Plant response rating, Kochia [13, 19] | Plant response rating, Oat, Wild [14, 19]
